# US10004716B2, “Therapeutic/ preventive agent containing coumarin derivative as active ingredient” (NIPPON ZOKI PHARMACEUTICAL CO., LTD., priority 2014, dated 2018)
# Key:
# [1] = tested on: fibronectin gene expression; experiment: Evaluation I: TGF-β-induced gene expression of fibrosis-related factors in NHLF cells: fibronectin; assay type: cell-based, human; conditions: 25 μmol/L test substance 2 hours, then TGF-β 5 ng/mL 24 hours, n = 3
# Method: NHLF cells were sown so as to make their amount 4×10^4 cells/well to each well of a 12-well plate and incubated to an extent of 80% confluent in a medium where fibroblast growth medium 2 supplement mix (FGM-2 SingleQuots, Lonza) was added to a fibroblast basal medium (FBM, Lonza). After that, incubation was conducted for 2 hours in a Dulbecco modified Eagle medium (DMEM) containing 25 μmol/L of a test substance and, after addition of […] growth factor (TGF)-β thereto so as to make its final concentration 5 ng/mL, incubation was carried out for 24 hours more.
# (§1) QIAzol Lysis Reagent (QIAGEN) (1 mL) was added to the above to suspend, 200 μL of chloroform was added thereto followed by mixing and centrifugation (at 4° C. and 1500 rpm) was then conducted whereby the supernatant liquid was recovered. Total RNA was extracted and purified by treating the supernatant liquid with QIACube (QIAGEN) and RNeasy Micro Kit (QIAGEN). cDNA was prepared from the total RNA using Omniscript RT kit (QIAGEN) and Oligo(dT)12-18 Primer (Invitrogen).
# (§2) Gene expression level of the fibrosis-related factors [connective tissue growth factor (CTGF), α-smooth muscle actin (SMA), fibronectin, endothelin and type I collagen (Col 1)] was measured by a conventional real time PCR method using a fluorescent dye SYBR GREEN I (Roche Diagnostics) by Light Cycler LC 480 (the same) using cDNA synthesized from the total RNA extracted in the above (2). A calibration curve was prepared by diluting the PCR product quantified by PicoGreen dsDNA Quantitation kit (Molecular probes) (a DNA quantitation kit) to an extent of 10^2˜10^7 copies/μL. From each of the resulting quantified values, copy numbers per 10000 copies of GAPDH gene being an internal standard were calculated.
# IL-6 gene expression = experiment: Suppression of LPS-induced gene expression of inflammation-related factors in THP-1 cells (real time PCR): IL-6; assay type: cell-based, human; conditions: PMA-differentiated THP-1 cells; test substance 12.5 μmol/mL 2 hours, then LPS 10 mg/mL 3 hours; n = 3
# Method: THP-1 cells were subjected to induction of differentiation for 72 hours with PMA (phorbol 12-myristate 13-acetate; 100 nM/L) and then the THP-1 cells (5×10^5 cells/mL) were incubated for 24 hours in a RPMI 1640+10% FCS culture solution in a 24-well plate. After that, a test substance was added so as to make the final concentration 12.5 μmol/mL followed by conducting the preincubation for 2 hours, a lipopolysaccharide (LPS) was then added thereto so as to make the final concentration 10 mg/mL and, after 3 hours, the cells were recovered.
# as §1, with “was” for “was then”
# as §2, with “inflammation-related” for “fibrosis-related”, “[IL-1β, IL-6” for “[connective tissue growth factor (CTGF), α-smooth muscle actin (SMA), fibronectin, endothelin”, “monocyte chemotactic protein (MCP)-1]” for “type I collagen (Col 1)]”
# [2] = tested on: fibronectin gene expression; experiment: Evaluation II: TGF-β-induced gene expression of fibrosis-related factors in NHLF cells: fibronectin; assay type: cell-based, human; conditions: 30 μM test substance, 200 μg/mL pirfenidone, 30 μM DEX, 1.0 μM TPCA-1 or 10 μM FP 2 hours, then TGF-β 0.5 ng/mL 4 hours, n = 4
# Method: (§3) NHLF cells were sown so as to make their amount 5×10^4 cells/well to each well of a 12-well plate and incubated to an extent of 80% confluent in a medium where fibroblast growth medium 2 supplement mix (FGM-2 SingleQuots, Lonza) was added to a fibroblast basal medium (FBM, Lonza). After that, incubation was conducted for 2 hours in a DMEM medium containing 30 μM of a test substance, 200 μg/mL of pirfenidone, 30 μM of dexamethasone (DEX), 1.0 μM of TPCA-1 or 10 μM of fluticasone propionate (FP) and, after TGF-β was added thereto so as to make its final concentration 0.5 ng/mL, incubation was carried out for 4 hours more.
# (§4) With regard to the extraction of RNA from NHLF cells, the synthesis of cDNA from RNA and the action of the test substance to gene expression of fibrosis-related factors [CFGF, TGF-β1, fibronectin and Col 1], the tests were carried out in the same manners as in (2) and (3) of the above Test Example 3.
# Col 1 gene expression = experiment: Evaluation II: TGF-β-induced gene expression of fibrosis-related factors in NHLF cells: Col 1; assay type: cell-based, human; conditions: 30 μM test substance, 200 μg/mL pirfenidone, 30 μM DEX, 1.0 μM TPCA-1 or 10 μM FP 2 hours, then TGF-β 0.5 ng/mL 4 hours, n = 4
# Method: as §3, §4
# TGF-β1 gene expression = experiment: Evaluation II: TGF-β-induced gene expression of fibrosis-related factors in NHLF cells: TGF-β1; assay type: cell-based, human; conditions: 30 μM test substance, 200 μg/mL pirfenidone, 30 μM DEX, 1.0 μM TPCA-1 or 10 μM FP 2 hours, then TGF-β 0.5 ng/mL 4 hours, n = 4
# Method: as §3, §4
# CTGF gene expression = experiment: Evaluation II: TGF-β-induced gene expression of fibrosis-related factors in NHLF cells: CTGF; assay type: cell-based, human; conditions: 30 μM test substance, 200 μg/mL pirfenidone, 30 μM DEX, 1.0 μM TPCA-1 or 10 μM FP 2 hours, then TGF-β 0.5 ng/mL 4 hours, n = 4
# Method: as §3, §4
# [3] = tested on: mice where pulmonary fibrosis was induced by bleomycin; experiment: Lung wet weight increase of mice where pulmonary fibrosis was induced by bleomycin; assay type: in vivo; conditions: ICR male mice, bleomycin 2 mg/kg i.v. 5 days; test substance 50 mg/kg or pirfenidone 200 mg/kg per os twice daily for 2 weeks; normal control 205, diseased control 303
# Method: Bleomycin (2 mg/kg) was repeatedly injected intravenously for 5 days to ICR male mice. The mice were organized into 4 groups of normal control group, diseased control group, test substance-administered group and pirfenidone-administered group.
# A test substance was suspended in 0.5 w/v % carboxymethyl cellulose sodium (CMC) and 50 mg/kg thereof was repeatedly administered per os with stirring twice daily for 2 weeks using an oral sonde for rats. Pirfenidone was suspended in 0.5 w/v % CMC and 200 mg/kg thereof was repeatedly administered per os with stirring twice daily for 2 weeks using an oral sonde for rats. To the normal control group and the diseased control group, 0.5 w/v % CMC was repeatedly administered per os according to the same administration schedule. After finishing the administration period, both lungs were excised from the mice and their wet weight was measured.
smiles,measurement,setting,value
"O=c1oc2c(OS(=O)(=O)c3ccc(C(F)(F)F)cc3)cccc2cc1NS(=O)(=O)c1cccc(C(F)(F)F)c1 [Compound 57, 2-Oxo-3-[[3-(trifluoromethyl)phenyl]sulfonylamino]-chromen-8-yl 4-(trifluoromethyl)benzenesulfonate]",Copy Numbers per 10000 Copies of GAPDH Fibronectin,[1],21220.7 copies per 10000 copies of GAP
same,Copy Numbers per 10000 Copies of GAPDH IL-6,IL-6 gene expression,49.0 copies per 10000 copies of GAP
"O=c1oc2c(OS(=O)(=O)c3cccc(C(F)(F)F)c3)cccc2cc1NS(=O)(=O)c1ccc(C(F)(F)F)cc1 [Compound 68, 2-Oxo-3-[[4-(trifluoromethyl)phenyl]sulfonylamino]-chromen-8-yl 3-(trifluoromethyl)benzenesulfonate]",Copy Numbers per 10000 Copies of GAPDH Fibronectin,[1],26090.7 copies per 10000 copies of GAP
same,Copy Numbers per 10000 Copies of GAPDH IL-6,IL-6 gene expression,95.7 copies per 10000 copies of GAP
"O=c1oc2c(OS(=O)(=O)c3ccc(C(F)(F)F)cc3)cccc2cc1NS(=O)(=O)c1cccc(Br)c1 [Compound 58, 3-[(3-Bromophenyl)sulfonylamino]-2-oxochromen-8-yl 4-(trifluoromethyl)benzenesulfonate]",Copy Numbers per 10000 Copies of GAPDH Fibronectin,[2],1827.5 copies per 10000 copies of GAP
same,Copy Numbers per 10000 Copies of GAPDH Fibronectin,[1],18665.2 copies per 10000 copies of GAP
same,Copy Numbers per 10000 Copies of GAPDH Col 1,Col 1 gene expression,525.6 copies per 10000 copies of GAP
same,Copy Numbers per 10000 Copies of GAPDH TGF-β1,TGF-β1 gene expression,704.5 copies per 10000 copies of GAP
same,Copy Numbers per 10000 Copies of GAPDH CTGF,CTGF gene expression,115.8 copies per 10000 copies of GAP
same,Copy Numbers per 10000 Copies of GAPDH IL-6,IL-6 gene expression,93.2 copies per 10000 copies of GAP
"O=c1oc2c(OS(=O)(=O)c3cccc(Br)c3)cccc2cc1NS(=O)(=O)c1cccc(C(F)(F)F)c1 [Compound 60, 2-Oxo-3-[[3-(trifluoromethyl)phenyl]sulfonylamino]-chromen-8-yl 3-bromobenzenesulfonate]",Copy Numbers per 10000 Copies of GAPDH Fibronectin,[2],1446.2 copies per 10000 copies of GAP
same,Copy Numbers per 10000 Copies of GAPDH Fibronectin,[1],30000.8 copies per 10000 copies of GAP
same,Copy Numbers per 10000 Copies of GAPDH Col 1,Col 1 gene expression,650.6 copies per 10000 copies of GAP
same,Copy Numbers per 10000 Copies of GAPDH TGF-β1,TGF-β1 gene expression,707.1 copies per 10000 copies of GAP
same,Copy Numbers per 10000 Copies of GAPDH CTGF,CTGF gene expression,119.0 copies per 10000 copies of GAP
same,Wet Lung Weight,[3],250 mg
same,Copy Numbers per 10000 Copies of GAPDH IL-6,IL-6 gene expression,275.2 copies per 10000 copies of GAP
